Data on four compounds can be found in ChEMBL document CHEMBL1667788, “Novel dammarane-type sapogenins from Panax ginseng berry and their biological activities” (Bioorg Med Chem Lett, 2011).

Each structure is given as a SMILES string.

Format in all cases: functional, cell-based
Assay [1] has as its system HL-60. The assay can be described thus: Cytotoxicity against human HL60 cells after 72 hrs by MTT assay. The settings on record: HL-60, 72 h.
For assay [2], the system named is COLO 205. The assay can be described thus: Cytotoxicity against human COLO205 cells after 72 hrs by MTT assay. The following applies: COLO 205, 72 h.
Assay [3] has as its system MCF7. The assay can be described thus: Cytotoxicity against human MCF7 cells after 72 hrs by MTT assay. The settings on record: MCF7, 72 h.
Assay [4] has as its system HepG2. The assay is described as follows: Cytotoxicity against human HepG2 cells after 72 hrs by MTT assay. The settings on record: HepG2, 72 h.
Assay [5] deals with A549. The assay can be described thus: Cytotoxicity against human A549 cells after 72 hrs by MTT assay. The settings on record: A549, 72 h.
Assay [6] deals with DU-145. The assay can be described thus: Cytotoxicity against human DU145 cells after 72 hrs by MTT assay. The settings on record: DU-145, 72 h.

Regarding `CC(C)[C@]12CC[C@](C)(O1)[C@H]1CC[C@]3(C)[C@@H]1[C@@H](C[C@@H]1[C@@]4(C)CC[C@H](O)C(C)(C)[C@@H]4CC[C@]13C)O2`, the IC50 in assay [1] worked out at 42.4 µM; in assay [2], 70.7 µM; in assay [3], 49 µM; in assay [4], 64.1 µM.

As for `CC(C)(O)CCC[C@@](C)(O)[C@H]1CC[C@]2(C)[C@@H]1[C@H](O)C[C@@H]1[C@@]3(C)CC[C@H](O)C(C)(C)[C@@H]3CC[C@]12C`, the IC50 was 8.03 µM in assay [1]; 18.9 µM in assay [2]; 34.2 µM in assay [3]; 45.8 µM in assay [4]; 29.9 µM in assay [5].

For `COC(C)(C)CCC[C@@](C)(O)[C@H]1CC[C@]2(C)[C@@H]1[C@H](O)C[C@@H]1[C@@]3(C)CC[C@H](O)C(C)(C)[C@@H]3CC[C@]12C`, the IC50 was 8.48 µM in assay [1]; 14.2 µM in assay [2]; 8.34 µM in assay [3]; 8.32 µM in assay [4]; 11.8 µM in assay [6]; 35.6 µM in assay [5].

For `CC(C)=CCCC(C)(O)[C@H]1CC[C@]2(C)[C@@H]1[C@H](O)C[C@@H]1[C@@]3(C)CC[C@H](O)C(C)(C)[C@@H]3CC[C@]12C` (single isomer, unassigned), the IC50 in assay [1] came to 27.1 µM; in assay [2], 49.2 µM; in assay [3], 6.62 µM; in assay [4] it was 39.4 µM; in assay [6], 60.4 µM; in assay [5], 99.9 µM.
